# Assay results published in patent US7144982B2, “Polypeptides with therapeutic activity and methods of use” (University of Minnesota, priority 2000, dated 2006).
# Read-outs that look alike come from different tables or passages of the source. Ends that are not written are not given here.
# Experiments:
# Human red blood cells = assay type: cell-based; details: for hemolysis: red cells of human, 1 h
# Procedure: Human red blood cells were washed three times using phosphate buffered saline (PBS: 35 mM phosphate buffer, 0.15 M NaCl, pH 7.0) prior to performing the assay. One hundred μL of human red blood cells suspended in 0.4% (v/v) PBS was placed in eppendorf tubes, and 100 μL of serially diluted peptides in PBS was added (peptide concentration ranged from 1 μM to 100 μM). Tubes were incubated for 1 hr at 37° C. and centrifuged at 1000 g for 5 min. One hundred μL aliquots of the supernatant was then transferred to eppendorf tubes, and hemolysis was measured by absorbance at 414 nm. Zero percentage hemolysis and 100% hemolysis were determined in PBS and in 1% Triton-X 100, respectively. The hemolysis percentage was calculated using the following formula: % hemolysis=[(A414 in the peptide solution−A414 in PBS)/(A414 in 1% Triton-X 100−A414 in PBS)]×100.
# E. coli J5 = assay: Bactericidal assay, rough strain E. coli J5; assay type: cell-based; details: for LD50 bactericidal activity, Gram-neg. rough J5: Table 4, SC-4 variants; for LD50 bactericidal activity, Gram-neg. rough J5 / LD50 bactericidal activity, Gram neg. rough J5: SD about ±30%; for LD50 bactericidal activity, Gram neg. rough J5: Table 1, E. coli J5
# Description: (§1) Pseudomonas aeruginosa type 1 is a clinical, smooth strain isolate serotyped by using the scheme of Homma, Japan. J. Exp. Med. 46, 329–336 (1976) and maintained in the lab by monthly transfer on blood agar plates. E. coli J96, IA2, and H5 are smooth strain, uropathogenic clinical isolates kindly maintained and provided by J. R. Johnson and described in Johnson et al., J. Infect. Disease 173, 920–926 (1996) for J96 and IA2 and in Johnson et al., J. Infect. Disease 173, 746–749 (1996) for H5. J5 is an E. coli rough strain initially referenced by G. R. Siber and discussed in Warren et al., Infect. Immunity 55, 1668–1673 (1987) and is analogous to the smooth strain E. coli 0111:B4 used in the BioWhittaker LAL endotoxin detection and quantitation kit described below. Gram-positive MN8 and MNHO are two patient isolates of Staphylococcus aureus, which were kindly provided by P. M. Schlievert and described in Bohach et al., Rev. Infect. Diseases 11, 75–82 (1989) for MNHO and in Schlievert et al., J. Infect. Diseases 147, 236–242 (1983) for MN8. All cultures are maintained on nutrient agar plates.
# (§2) Pyrogen-free solutions were used throughout the assay. Log phase bacteria were obtained by transferring an overnight culture or scraping crystals off −85° C. glycerol stocks of overnight cultures. Bacteria were washed and resuspended in 0.9% sodium chloride with adjustment to an optical density at 650 nm which yields 3×10^8 CFU/ml. Bacteria were then diluted 1:10 in 0.08 M citrate phosphate buffer, pH 7.0 (prepared by mixing 0.08 M citric acid with 0.08 M dibasic sodium phosphate). Bacteria (0.15 ml) were incubated with peptide in a final volume of 1.0 ml of buffer. The assay was done in 17×100 polypropylene tubes in a reciprocal water bath shaker at 37° C. for 30 minutes. Following this 30 minute (min) incubation, 10-fold dilutions were made in 0.9% sodium chloride. Dilutions were done to 10^−4 and 20 μl of each dilution was streaked across an agar plate. Gram-positive organisms were plated on nutrient agar plates containing 2% agar and Gram-negative organisms were plated on MacConkey agar (2%). Plates were incubated overnight at 37° C. and counted the next morning. The dilution containing 10–100 bacteria was counted and the number multiplied by 50 to adjust all counts to the number bacteria killed per milliliter. Peptide concentrations were converted to logarithm base ten and graphed. Bactericidal activity was determined by dose response where LD50 values were determined by best fits of a sigmoidal curve to the dose response data.
# [1] = test system: Pseudomonas aeruginosa type 1; assay: Bactericidal assay, P. aeruginosa (P.a.); assay type: cell-based; details: SD about ±30%; for LD50 bactericidal activity, Gram-neg. smooth P.a.: Table 4, SC-4 variants; for LD50 bactericidal activity, Gram neg. smooth P.a.: Table 1, P. aeruginosa
# Description: as §1, §2
# [2] = test system: Staphylococcus aureus MNHO; assay: Bactericidal assay, Gram-positive S. aureus MNHO; assay type: cell-based; details: SD about ±30%
# Description: as §1, §2
# E. coli 055:B5 LPS = assay: Limulus amoebocyte lysate assay for LPS neutralization; assay type: biochemical; details: for drop in LPS neutralizing activity relative to SC-4: SC-3: relative to either SC-4 or SC-5
# Description: The ability of synthetic peptides to neutralize endotoxin was detected using the chromogenic QCL-1000 kit from BioWhittaker, Inc. (Walkersville, Md.) as described in their protocol. This method is quantitative for Gram-negative bacterial endotoxin (lipopolysaccharide, LPS). In the Limulus amebocyte lysate (LAL) assay, peptides that are active inhibit the LPS-mediated activation of a proenzyme (Young et al., J. Clin. Invest. 51, 1790–1797 (1972)) whose active form would release p-nitroaniline (pNA) from a colorless synthetic substrate (Ac-Ile-Glu-Ala-Arg-pNA), producing a yellow color (pNA) whose absorption is monitored spectrophotometrically at 405–410 nm. The initial rate of enzyme activation is proportional to the concentration of endotoxin present. The concentration of peptide required to bind to LPS and therefore to inhibit the Limulus amoebocyte lysate driven by 0.04 unit (or 0.01 ng) of E. coli 055:B5 LPS (from SIGMA) was determined by dose response.
# E. coli J96 = assay type: cell-based; details: for LD50 bactericidal activity, Gram neg. smooth J96: Table 1, E. coli J96, SD about ±30%
# Description: as §1
# as §2, with “The assay was done in 17×100 polypropylene tubes in a reciprocal water bath shaker at 37° C. for 30 minutes. Following this 30 minute (min) incubation, 10-fold dilutions were made in 0.9% sodium chloride. Dilutions were done to 10^−4 and 20 μl of each dilution was streaked across an agar plate. Gram-positive organisms were plated on nutrient agar plates containing 2% agar and Gram-negative organisms were plated on MacConkey agar (2%).” left out, “Peptide concentrations were converted to logarithm base ten and graphed.” left out
# E. coli H5 = assay: Bactericidal assay, smooth strain E. coli H5; assay type: cell-based; details: Table 1, SD about ±30%
# Description: as §1, with “Diseases 11, 75–82 (1989) for MNHO and in Schlievert et al., J. Infect. Diseases 147, 236–242 (1983) for MN8. All cultures are maintained on nutrient agar plates.” left out
# (§3) Pyrogen-free solutions were used throughout the assay. […] Plates were incubated overnight at 37° C. and counted the next morning. The dilution containing 10–100 bacteria was counted and the number multiplied by 50 to adjust all counts to the number bacteria killed per milliliter. […] Bactericidal activity was determined by dose response where LD50 values were determined by best fits of a sigmoidal curve to the dose response data.
# E. coli IA2 = assay: Bactericidal assay, smooth strain E. coli IA2; assay type: cell-based; details: Table 1, SD about ±30%
# Description: as §1, with “Diseases 11, 75–82 (1989) for MNHO and in Schlievert et al., J. Infect. Diseases 147, 236–242 (1983) for MN8. All cultures are maintained on nutrient agar plates.” left out
# as §3
# [3] = test system: Staphylococcus aureus MN8; assay: Bactericidal assay, Gram-positive S. aureus MN8; assay type: cell-based; details: Table 1, SD about ±30%
# Description: as §1, with “Diseases 11, 75–82 (1989) for MNHO and in Schlievert et al., J. Infect. Diseases 147, 236–242 (1983) for MN8. All cultures are maintained on nutrient agar plates.” left out
# as §3
# bacteria = details: cited from earlier work
# P. aeruginosa = details: against P. aeruginosa; Lee et al. 1989; cited from earlier work
# [4] = Table 4, SC-4 variants, SD about ±30%, read-out: LPS neutralization IC50
# [5] = Table 1, SD about ±30%, read-out: LPS effect, IC50 for neutralization of LPS
# [6] = read-out: IC50 LPS neutralization
Substance,hemolysis (Human red blood cells; 1e-4 M),"LD50 bactericidal activity, Gram-neg. rough J5 (E. coli J5)","LD50 bactericidal activity, Gram-neg. smooth P.a. [1]","LD50 bactericidal activity, Gram-positive MNHO ([2]; Table 4, SC-4 variants)",IC50 (E. coli 055:B5 LPS; [4]) [µM],also measured
"VKLNDGRELSLD-NH2 [SC-8, VKLNDGRELSLD]",~10%,,,,,
"MKLFKRHLKWKIIV [SC-403, M K L F K R H L K W K I I V-NH2]",,0.002 10^−6 M,0.05 10^−6 M,0.4 10^−6 M,6,
"SIQKLNVSMKLFRKQAKWKIIVKLNDGRELSLD [βpep-19, reference compound]",,,,,,"LD50 bactericidal activity, Gram neg. rough J5 (E. coli J5): 0.01 10^−6 M; LD50 bactericidal activity, Gram neg. smooth P.a. [1]: 0.03 10^−6 M; LD50 bactericidal activity, Gram neg. smooth J96 (E. coli J96): 0.1 10^−6 M; LD50 bactericidal activity, Gram neg. smooth H5 (E. coli H5): 0.71 10^−6 M; LD50 bactericidal activity, Gram neg. smooth IA2 (E. coli IA2): 0.06 10^−6 M; LD50 bactericidal activity, Gram-positive MN8 [3]: 0.25 10^−6 M; LD50 bactericidal activity, Gram-positive MNHO ([2]; Table 1, S. aureus MNHO): 0.16 10^−6 M; IC50 (E. coli 055:B5 LPS; [5]): 2 µM; IC50 (E. coli 055:B5 LPS; [6]): ~2 µM; bactericidal concentration range (bacteria; Mayo et al. 1998): ~10^−8 M"
K L F K R H L K W X I I-NH2 [SC-407],,0.007 10^−6 M,0.05 10^−6 M,1 10^−6 M,3,LPS neutralization in words (E. coli 055:B5 LPS): essentially no affect
"ANIKLSVQMKLF-NH2 [SC-1, ANIKLSVQMKLF]",around 70%,,,,,hemolysis (Human red blood cells; 1e-6 M): 15-30%
cecropin P1,,,,,,lethal concentration (P. aeruginosa): 6 µM
K L F X R H L K W K I I-NH2 [SC-405],,0.006 10^−6 M,0.17 10^−6 M,0.4 10^−6 M,7,drop in LPS neutralizing activity relative to SC-4 (E. coli 055:B5 LPS): about 3 fold
K L F K K H L K W K I I-NH2 [SC-408],,0.003 10^−6 M,0.07 10^−6 M,2 10^−6 M,1000,LPS neutralization in words (E. coli 055:B5 LPS): does not affect LPS binding; drop in LPS neutralizing activity relative to SC-4 (E. coli 055:B5 LPS): about 500 fold
"KLFKRHLKWKII-NH2 [SC-4, KLFKRHLKWKII]",~10%,,,,,LD50 (E. coli J5; against J5 (Gram-negative bacteria)): 3 nM; LD50 (E. coli J96; J96): 250 nM; concentration below which not hemolytic (Human red blood cells): ≥ 10^−4 M
"QMKLFKRHLKWK [SC-401, Q M K L F K R H L K W K-NH2]",,0.004 10^−6 M,0.06 10^−6 M,XXX (XXX means not active at concentrations below 1 × 10^−5 M.),,drop in LPS neutralizing activity relative to SC-3 (E. coli 055:B5 LPS): 5 fold; drop in LPS neutralizing activity relative to SC-4 (E. coli 055:B5 LPS): 60 fold; IC50 (E. coli 055:B5 LPS; [6]): 126 µM
"BG-22: peptide 28 mer having the amino acid sequence from the β-sheet domain of bactericidal/permeability increasing (B/PI) protein (residues 82–108) (NANIKISGKWKAQKRFLKMSGNFDLSI; UniProt P17213 113-139, looked up, fragment) [reference compound]",,,,,,"LD50 bactericidal activity, Gram neg. rough J5 (E. coli J5): 0.09 10^−6 M; LD50 bactericidal activity, Gram neg. smooth P.a. [1]: 0.05 10^−6 M; LD50 bactericidal activity, Gram neg. smooth J96 (E. coli J96): 0.52 10^−6 M; LD50 bactericidal activity, Gram neg. smooth H5 (E. coli H5): 0.71 10^−6 M; LD50 bactericidal activity, Gram neg. smooth IA2 (E. coli IA2): 0.32 10^−6 M; LD50 bactericidal activity, Gram-positive MN8 [3]: 0.5 10^−6 M; LD50 bactericidal activity, Gram-positive MNHO ([2]; Table 1, S. aureus MNHO): 0.63 10^−6 M; IC50 (E. coli 055:B5 LPS; [5]): 5 µM"
KLKLLLLLKLK-NH2 [antibacterial peptide of the literature forming channels in bacterial membranes],,,,,,effective antibacterial concentration (bacteria; Alvarez-Bravo et al. 1995): 100 µM
"KRHLKWKIIVKL-NH2 [SC-5, KRHLKWKIIVKL]",around 70%,,,,,hemolysis (Human red blood cells; 1e-6 M): 15-30%
X L F K R H L K W K I I-NH2 [SC-404],,0.004 10^−6 M,0.22 10^−6 M,1 10^−6 M,7,drop in LPS neutralizing activity relative to SC-4 (E. coli 055:B5 LPS): about 3 fold
"KIIVKLNDGREL-NH2 [SC-7, KIIVKLNDGREL]",~15%,,,,,
"MKLFKRHLKWKI [SC-402, M K L F K R H L K W K I-NH2]",,0.005 10^−6 M,0.07 10^−6 M,6 10^−6 M,25,drop in LPS neutralizing activity relative to SC-4 (E. coli 055:B5 LPS): 12 fold; IC50 (E. coli 055:B5 LPS; [6]): 25 µM
"VQMKLFKRHLKW-NH2 [SC-3, VQMKLFKRHLKW]",~10%,,,,,
"ANIKLSVQMKLFKRHLKWKIIVKLNDGRELSLD-NH2 [βpep-25, reference compound]",about 5%,,,,,
"LKWKIIVKLNDG-NH2 [SC-6, LKWKIIVKLNDG]",~15%,,,,,
K L F K R H L X W K I I-NH2 [SC-406],,0.005 10^−6 M,0.05 10^−6 M,2 10^−6 M,3,LPS neutralization in words (E. coli 055:B5 LPS): essentially no affect
K L F K X H L K W K I I-NH2 [SC-409],,0.001 10^−6 M,0.22 10^−6 M,0.3 10^−6 M,3,LPS neutralization in words (E. coli 055:B5 LPS): nearly full activity
"KLSVQMKLFKRH-NH2 [SC-2, KLSVQMKLFKRH]",~15%,,,,,
